How the values were obtained:
full-length human PHD1 = target: T1, full-length human PHD1 (Homo sapiens, UniProt Q96KS0); assay: TR-FRET assay, enzymatic IC50 against PHD1; type: biochemical; for IC50: 15 nM PHD1
T1 construct: FLAG (N); purchased Active Motif 81064; host or cells: baculovirus expression system
From the text: PHD1 was expressed in a baculovirus expression system as the full-length protein (NCBI accession number NP_542770.2) with an N-terminal FLAG tag (molecular weight 44.9 kDa).

full-length human PHD2 = full-length human PHD2 (Homo sapiens, UniProt Q9GZT9); assay: TR-FRET assay, enzymatic IC50 against PHD2
Sequence of full-length human PHD2 (Q9GZT9 whole entry): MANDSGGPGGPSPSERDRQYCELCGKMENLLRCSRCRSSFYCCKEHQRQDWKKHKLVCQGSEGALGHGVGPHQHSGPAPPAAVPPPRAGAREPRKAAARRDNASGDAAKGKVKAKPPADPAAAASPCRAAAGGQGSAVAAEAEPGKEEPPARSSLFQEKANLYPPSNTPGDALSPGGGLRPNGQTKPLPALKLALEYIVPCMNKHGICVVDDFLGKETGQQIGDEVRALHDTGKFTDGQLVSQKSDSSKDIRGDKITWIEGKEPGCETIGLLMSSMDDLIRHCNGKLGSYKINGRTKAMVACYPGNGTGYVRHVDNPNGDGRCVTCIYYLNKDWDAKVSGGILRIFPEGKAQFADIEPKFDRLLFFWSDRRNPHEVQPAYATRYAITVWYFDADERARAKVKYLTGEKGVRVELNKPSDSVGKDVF
From the text: Time-resolved fluorescence resonance energy transfer (TR-FRET) assay was utilized to determine the enzymatic half maximal inhibitory concentration (IC50) value of PHD inhibitors against the full-length human prolyl-4-hydroxylase domain (PHD) enzymes, PHD1, PHD2, and PHD3. The TR-FRET assay was developed based on the specific binding of hydroxylated HIF-1α peptide with the complex formed by VHL, EloB and EloC (VBC), to generate a fluorescent signal. Terbium (Tb)-Donor (monoclonal antibody anti-6His-Tb-cryptate Gold) and D2-acceptor (streptavidin [SA]-D2) of TR-FRET are linked to the VBC complex and to HIF-1α peptide, respectively. The VBC complex binds specifically to the HIF-1α peptide when it is hydroxylated, allowing energy transfer from TR-FRET donor to acceptor (FIG. 1). […] The plates were incubated for 30 minutes at room temperature without rotation. […] TR-FRET assays were performed in triplicate at each concentration of compound and the assays were repeated independently three times.

T1 sequence (Q96KS0 whole entry): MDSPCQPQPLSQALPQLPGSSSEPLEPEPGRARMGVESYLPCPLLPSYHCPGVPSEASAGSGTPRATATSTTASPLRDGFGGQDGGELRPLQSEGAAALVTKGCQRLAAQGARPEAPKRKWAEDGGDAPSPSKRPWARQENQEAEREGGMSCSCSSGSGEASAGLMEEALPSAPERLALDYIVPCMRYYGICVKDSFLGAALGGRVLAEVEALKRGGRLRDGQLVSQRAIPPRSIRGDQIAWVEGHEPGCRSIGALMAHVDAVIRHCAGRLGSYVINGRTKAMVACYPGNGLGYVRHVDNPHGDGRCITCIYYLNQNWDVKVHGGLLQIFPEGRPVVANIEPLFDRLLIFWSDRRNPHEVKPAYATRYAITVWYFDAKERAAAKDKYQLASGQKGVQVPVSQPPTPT

SMILES	Km (full-length human PHD1; read-out: Km of 2-OG for PHD1) [µM]	IC50 (full-length human PHD1) [nM]	IC50 (full-length human PHD2) [nM]
O=C(O)CCC(=O)C(=O)O [Compound 2-OG, 2-oxoglutarate, reference compound]	0.0127	–	–
Cc1nn(-c2ccc(P(C)(C)=O)cn2)c(O)c1-c1ccc(C#N)cc1 [Compound 14, 4-(1-(5-(dimethylphosphoryl)pyridin-2-yl)-5-hydroxy-3-methyl-1H-pyrazol-4-yl)benzonitrile]	–	< 100	< 100
Cc1nn(-c2ccc([S@@](C)(=N)=O)cn2)c(O)c1-c1ccc(C#N)cc1 [Compound 16, (S)-4-(5-hydroxy-3-methyl-1-(5-(S-methylsulfonimidoyl)pyridin-2-yl)-1H-pyrazol-4-yl)benzonitrile]	–	< 100	< 100
Cc1nn(-c2ccc([S@](C)(=N)=O)cn2)c(O)c1-c1ccc(C#N)cc1 [Compound 17, (R)-4-(5-hydroxy-3-methyl-1-(5-(S-methylsulfonimidoyl)pyridin-2-yl)-1H-pyrazol-4-yl)benzonitrile]	–	< 100	< 100
Cc1nn(-c2ccc(S(C)(=N)=O)cn2)c(O)c1-c1ccc(Cl)cc1 (stereo not shown) [Compound 18, (6-(4-(4-chlorophenyl)-5-hydroxy-3-methyl-1H-pyrazol-1-yl)pyridin-3-yl)(imino)(methyl)-λ^6-sulfanone]	–	< 100	< 100
Cc1nn(-c2ccc(S(=N)(=O)C(C)C)cn2)c(O)c1-c1ccc(C#N)cc1 (stereo not shown) [Compound 19, 4-(5-hydroxy-3-methyl-1-(5-(propan-2-ylsulfonimidoyl)pyridin-2-yl)-1H-pyrazol-4-yl)benzonitrile]	–	< 100	< 100
Cc1nn(-c2ccc(S(=N)(=O)c3ccccc3)cn2)c(O)c1-c1ccc(C#N)cc1 (stereo not shown) [Compound 20, 4-(5-hydroxy-3-methyl-1-(5-(phenylsulfonimidoyl)pyridin-2-yl)-1H-pyrazol-4-yl)benzonitrile]	–	< 100	< 100
CCS(=N)(=O)c1ccc(-n2nc(C)c(-c3ccc(C#N)cc3)c2O)nc1 (stereo not shown) [Compound 21, 4-(5-hydroxy-3-methyl-1-(5-(S-ethylsulfonimidoyl)pyridin-2-yl)-1H-pyrazol-4-yl)benzonitrile]	–	< 100	< 100
Cc1nn(-c2ccc([S@+](C)[O-])cn2)c(O)c1-c1ccc(C#N)cc1 [Compound 22, (S)-4-(5-hydroxy-3-methyl-1-(5-(methylsulfinyl)pyridin-2-yl)-1H-pyrazol-4-yl)benzonitrile]	–	< 100	< 100
Cc1nn(-c2ccc([S@@+](C)[O-])cn2)c(O)c1-c1ccc(C#N)cc1 [Compound 23, (R)-4-(5-hydroxy-3-methyl-1-(5-(methylsulfinyl)pyridin-2-yl)-1H-pyrazol-4-yl)benzonitrile]	–	< 100	< 100
Cc1nn(-c2ccc(S(=N)(N)=O)cn2)c(O)c1-c1ccc(C#N)cc1 (stereo not shown) [Compound 24, 6-(4-(4-cyanophenyl)-5-hydroxy-3-methyl-TH-pyrazol-1-yl)pyridine-3-sulfonimidamide]	–	< 100	< 100
Cc1nn(-c2ccc(S(=N)(=O)N(C)C)cn2)c(O)c1-c1ccc(C#N)cc1 (stereo not shown) [Compound 25, 6-(4-(4-cyanophenyl)-5-hydroxy-3-methyl-1H-pyrazol-1-yl)-N,N-dimethylpyridine-3-sulfonimidamide]	–	< 100	< 100
Cc1nn(-c2ccc(-c3cn(C)nn3)cn2)c(O)c1-c1ccc(C#N)cc1 [Compound 54, 4-(5-hydroxy-3-methyl-1-(5-(1-methyl-1H-1,2,3-triazol-4-yl)pyridin-2-yl)-1H-pyrazol-4-yl)benzonitrile]	–	< 100	–
Cc1cc(-n2nc(C)c(-c3ccc(C#N)cc3)c2O)ncc1S(=O)(=O)N1CCCC1 [Compound 72, 4-(5-hydroxy-3-methyl-1-(4-methyl-5-(pyrrolidin-1-ylsulfonyl)pyridin-2-yl)-1H-pyrazol-4-yl)benzonitrile]	–	< 100	–

From patent US20230159489A1, “PHD INHIBITOR COMPOUNDS, COMPOSITIONS, AND USE” (Akebia Therapeutics, Inc., priority 2020, published 2023)
